Measured values taken from PMC11642940, “A New Demand for Improved Selectivity and Potency of Cyanine Dyes as Antiproliferative Agents Against Colorectal Cancer Cells” (Molecules, 2024).
Like-named read-outs stand apart in the source and are kept apart here.

Legend:
[1] = tested on: MCF-7 breast adenocarcinoma cells; assay: MTT cell viability assay, MCF-7; settings: for IC50 / viability at 10 µM: Homo sapiens, MCF7, 72 h; for viability at 10 µM: read-out: cell viability percentage in relation to control, MCF-7; for SI MCF-7 (selectivity index versus NHDF): MCF-7 versus NHDF, 72 h
Procedure: To evaluate the anticancer potential of monomethine cyanine dyes 1–12, a cell proliferation study was conducted using the 3-(4,5-dimethylthiazol-2-yl)-2,5-diphenyltetrazolium bromide (MTT) assay. For this preliminary evaluation, a concentration of 10 µM for each dye was tested, with the well-established chemotherapy agent 5-fluorouracil (5-FU) serving as a positive control. The assay included normal human dermal fibroblasts (NHDF) as non-tumor cells, alongside tumor cell lines from colorectal (Caco-2), prostate (PC-3), and breast (MCF-7) adenocarcinomas.
The cell lines used in this study (Caco-2, MCF-7, PC-3, and NHDF) were obtained from the American Type Culture Collection (ATCC, Manassas, VA, USA) and cultured in 75 cm^2 culture flasks at 37 °C in a humidified atmosphere with 5% CO2 in a LEEC Culture Safe Precision CO2 Incubator. PC-3 cells were grown in Roswell Park Memorial Institute (RPMI) medium supplemented with 10% of inactivated Fetal Bovine Serum (FBS) and 1% of an antibiotic mixture (Sp; 10,000 U/mL of penicillin G and […] of streptomycin). MCF-7 and Caco-2 cell lines were both cultured using Dulbecco’s Modified Eagle Medium (DMEM). However, the medium for MCF-7 cells was complemented with 10% of inactivated FBS and 1% of antibiotic/antimycotic mixture (Ab; 10,000 U/mL of penicillin G, […] of streptomycin and 25 µg/mL of amphotericin B), and the medium for Caco-2 cells was supplemented with 20% of inactivated FBS and 1% of Sp. Finally, RPMI medium supplemented with 10% FBS, 2 mM of L-glutamine, 10 mM of 4-(2-hydroxyethyl)-1-piperazineethanesulfonic acid (HEPES), 1 mM of sodium pyruvate, and 1% of Ab was used to culture NHDF cells. The culture media were renewed every two to three days until near confluence was achieved. Then, cells were detached using a solution of 0.125 g/L of trypsin and 0.02 g/L of ethylenediaminetetracetic acid (EDTA), counted by the trypan blue method, resuspended, and adequately seeded to continue the culture in 75 cm^2 flasks or for the experiments described below. All manipulations were performed in a Labculture Class II A2 Biological Safety Cabinet.
After trypsinization, cells were seeded in 96-well culture plates (100 µL; 2 × 10^4 cells/mL), and after 48 h (for adherence), they were incubated with the compounds under study in the absence of light for a duration of 72 h. Then, the medium was removed, and fresh incomplete culture medium (without FBS and Ab or Sp) and MTT solution [5 mg/mL in phosphate buffer saline (PBS)] were added to each well, followed by 4 h of incubation. After this, the medium containing MTT was removed and DMSO was added to dissolve formazan crystals. The absorbance of each well at 570 nm was determined using a microplate spectrophotometer Bio-Rad (Hercules, CA, USA) xMark. Untreated cells were considered the negative control, and 5-FU, a clinically used drug, was considered the positive control. For data analysis, the relative cell proliferation relative to the negative control cells was calculated. For each cell viability study, at least two independent assays in quadruplicate were performed. Increasing concentrations of the compounds between 0.001 and 100 μM were used to determine the IC50 values.

[2] = tested on: Caco-2 cells; assay: Cell cycle distribution by PI staining and flow cytometry; assay type: cell-based, human
Procedure: After excluding sub-G1 events, we proceeded to evaluate the impact of dyes 5 and 10 on cell cycle distribution.
Apoptosis (sub-G1 events) and cell cycle distribution were evaluated by propidium iodide (PI) staining and flow cytometry, as described by Riccardi and Nicolleti. After 48 h of Caco-2 cells (2 mL; 3 × 10^4 cells/mL) adherence in 6-well plates, the culture medium was substituted with the test solutions (3 mL and 5 mL for negative control) and incubated for a further 72 or 120 h. Untreated cells were used as the negative control, and sorbitol and 5-FU were used as positive controls. After incubation, the supernatant was collected in a centrifuge tube, cells were washed with PBS, trypsinized and wells were once again washed with PBS. This cell suspension was maintained on ice, centrifugated at 300 g for 5 min, and then the pellet was resuspended in 0.5 mL of PBS. Cells were fixed by adding 4.5 mL of 70% ethanol cooled at −20 °C on ice and were stored at −20 °C for a period ranging from one to a few days. On the day of flow cytometry analysis, PBS was added to the fixed cell tubes, followed by centrifugation and removal of the supernatant. The pellet was resuspended in 0.5 mL of PBS and 0.5 mL of DNA extraction solution (192 mL of 0.2 M sodium phosphate and 8 mL of 0.1% Triton X-100, pH 7.8). After incubation for 5 min, the cells were once again centrifuged, the supernatant was removed, and the pellet was resuspended in 0.3 mL of staining solution (20 µg/mL of PI and 0.2 mg/mL of DNase-free RNase in PBS). Using a FACSCalibur flow cytometer (Becton Dickinson, Franklin Lakes, NJ, USA) with a 488 nm laser line, a minimum of 20,000 events were acquired and recorded using the BD CellQuestTM Pro 4.0.2 software, and analyzed with FlowJo 10.5.3 software. To exclude debris and necrotic cells, events with a lower diameter (forward scatter; FCS) and PI fluorescence (FL3) than the hypodiploid apoptotic cells were eliminated (Figures S1 and S2). Two independent experiments were performed. A Student’s t-test was performed to evaluate the statistical significance of the results.

[3] = Photostability assay (absorbance decay under white light); assay type: physicochemical; settings: 10 µM in PBS, after 30 min white light irradiation; 436 nm for 5, 439 nm for 10
Procedure: To further explore this, the photostability of these dyes was tested. […] A gradual linear degradation continued for at least 120 min. This degradation likely explains the decreased cytotoxicity observed in the photocytotoxicity assay.
In a 96-well plate, 100 µL of dyes 5 and 10 at a concentration of 10 µM, prepared from 10 mM DMSO stock solution diluted in PBS, was added at each well. The photostability assay was performed by irradiating the as previously described for photocytotoxicity evaluation, repeated several times up to 120 min. Spectrophotometric readings were taken over the maximum absorption wavelength of each dye (436 nm for 5 and 439 nm for 10). Two independent experiments were performed in quadruplicate, and the obtained absorbance values were normalized.

[4] = read-out: IC50 MCF-7, MCF-7, 72 h incubation, MTT

CN1C(=Cc2oc3ccccc3[n+]2C)C=Cc2ccccc21.Cc1ccc(S(=O)(=O)[O-])cc1 [Dye 5, 3-Methyl-2-((1-methylquinolin-2(1H)-ylidene)methyl)benzo[d]oxazol-3-ium 4-methylbenzenesulfonate]
IC50 [1, 4]: 3.83 µM | viability at 10 µM [1]: 6.34 ± 1.06% | SI MCF-7 (selectivity index versus NHDF) [1]: 0.7 | effect on cell cycle distribution ([2]; Caco-2, 1 µM, 72 and 120 h): did not significantly alter the cell cycle distribution | reduction in absorbance at maximum wavelength [3]: 3.7%

CCN1C(=Cc2sc3cc([N+](=O)[O-])ccc3[n+]2CC)Sc2ccccc21.Cc1ccc(S(=O)(=O)[O-])cc1 [Dye 10, 3-Ethyl-2-((3-ethylbenzo[d]thiazol-2(3H)-ylidene)methyl)-6-nitrobenzo[d]thiazol-3-ium 4-methylbenzenesulfonate]
IC50 [1, 4]: 13.3 µM | viability at 10 µM [1]: 10.6 ± 6.44% | SI MCF-7 (selectivity index versus NHDF) [1]: 1.7 | proportion of cells in G0/G1 phase ([2]; Caco-2, 10 µM, 72 h): approximately 62.0% | proportion of cells in G2/M phase ([2]; Caco-2, 10 µM, 72 h): 6.6% | reduction in absorbance at maximum wavelength [3]: 2.5%

O=c1[nH]cc(F)c(=O)[nH]1 [5-FU, 5-fluorouracil, reference compound]
IC50 ([1]; read-out: IC50 MCF-7): 2.12 µM | viability at 10 µM [1]: 25.3 ± 4.94% | SI MCF-7 (selectivity index versus NHDF) [1]: 2.1 | proportion of cells in G0/G1 phase ([2]; Caco-2, 10 µM, 72 h): 10.1% | proportion of cells in S phase ([2]; Caco-2, 10 µM, 72 h): around 80.3%
